Experimental data: the OligoGym collection
After the bases stand the sugars from the 5' end (letter, count) and the backbone: PS all phosphorothioate, else s phosphorothioate and o phosphodiester by linkage. Methylation of C is not given here. e = 2'-O-(2-methoxyethyl) (MOE); k = constrained ethyl (cEt); d = 2'-deoxy (DNA); m = 2'-O-methyl

Target: HSD17B13
Settings: ASO, HepaRG

Sequence	target mRNA inhibition (1 µM) [%]	also measured
CTGTGGCATGGCTACA (sugars k3 d1 m1 d8 k3, PS)	35	
TCCAAATCAGGTAGTT (sugars k3 d10 k3, PS)	22	
ATCTACATGGATCCAA (sugars k3 d10 k3, PS)	12	
GTAGTCCTAGGGAGGA (sugars k3 d10 k3, PS)	77	target mRNA inhibition (0.02 µM): 20%; target mRNA inhibition (0.078 µM): 50%; target mRNA inhibition (0.313 µM): 62%; target mRNA inhibition (1.25 µM): 75%; target mRNA inhibition (5 µM): 86%
TAGAACTCCCAACCCA (sugars k3 d10 k3, PS)	44	
ACCAATCCTCAGCTTT (sugars k3 d10 k3, PS)	11	
ATAGAGTTGCACCGTT (sugars k3 d10 k3, PS)	57	
CAATGGTTGATAGTTT (sugars k3 d10 k3, PS)	47	
CTATTAGTTGGCCTGC (sugars k3 d10 k3, PS)	32	
TGCAAGTTTATCAGTA (sugars k3 d10 k3, PS)	70	target mRNA inhibition (0.02 µM): 28%; target mRNA inhibition (0.078 µM): 32%; target mRNA inhibition (0.313 µM): 62%; target mRNA inhibition (1.25 µM): 86%; target mRNA inhibition (5 µM): 92%
AAAAAGCTCTATTGGT (sugars k3 d10 k3, PS)	0	
CACCTTATTAATATCC (sugars k3 d10 k3, PS)	34	
ATTGUCTAAACATCTC (sugars k3 d1 m1 d8 k3, PS)	73	
TTATGTAATAGCCAGT (sugars k3 d10 k3, PS)	77	target mRNA inhibition (0.02 µM): 16%; target mRNA inhibition (0.078 µM): 21%; target mRNA inhibition (0.313 µM): 59%; target mRNA inhibition (1.25 µM): 78%; target mRNA inhibition (5 µM): 89%
GGTAATCTCTTCATCC (sugars k3 d10 k3, PS)	9	
TATACGATGGAACAAA (sugars k3 d10 k3, PS)	4	
GACCAATATAATCCAA (sugars k3 d10 k3, PS)	34	
GCTGATTAATCTTGAT (sugars k3 d10 k3, PS)	48	
CTCAGGCTGTAAGAGT (sugars k3 d10 k3, PS)	21	
TTGGUAAGTATTCCAT (sugars k3 d1 m1 d8 k3, PS)	13	
TTGAATAGCAAGCCAA (sugars k3 d10 k3, PS)	31	
TCCTGTGTTAGCTTTA (sugars k3 d1 m1 d8 k3, PS)	72	
GGAATGCTACTTGAAC (sugars k3 d10 k3, PS)	63	
TGCAGATTATTATGTG (sugars k3 d10 k3, PS)	38	

Sequence	target mRNA inhibition (1 µM) [%]	also measured
CCAACCAAACTTCCAG (sugars k3 d1 m1 d8 k3, PS)	30	
GAACCGTATTCCCAAC (sugars k3 d10 k3, PS)	72	
CTAAACATCTCTGGGA (sugars kkdddddddddkekek, PS)	29	
GGCTTAATTTTCGGGT (sugars k3 d10 k3, PS)	17	
TTCTAGGATGATGTTC (sugars k3 d10 k3, PS)	72	
AATAGCCAGTACAGTT (sugars k3 d10 k3, PS)	46	
TTAAGCAGATGGCTTA (sugars k3 d10 k3, PS)	0	
TTAGUATAGTTATCTT (sugars k3 d1 m1 d8 k3, PS)	22	
TACTTGAACAGTCTTA (sugars kkdddddddddkekek, PS)	60	
CACTATCAGAACAGTT (sugars k3 d10 k3, PS)	24	
CCGCACACTGAAGCCA (sugars k3 d10 k3, PS)	34	
GCATGGCTACAGATTG (sugars k3 d1 m1 d8 k3, PS)	76	target mRNA inhibition (0.02 µM): 2%; target mRNA inhibition (0.078 µM): 2%; target mRNA inhibition (0.313 µM): 31%; target mRNA inhibition (1.25 µM): 61%; target mRNA inhibition (5 µM): 78%
CCACTTTTGGTGGACT (sugars k3 d10 k3, PS)	17	
ACAGTAAAATTATGCC (sugars k3 d10 k3, PS)	73	target mRNA inhibition (0.02 µM): 0%; target mRNA inhibition (0.078 µM): 0%; target mRNA inhibition (0.313 µM): 4%; target mRNA inhibition (1.25 µM): 50%; target mRNA inhibition (5 µM): 68%
GCCTTACCAGAATTTA (sugars k3 d10 k3, PS)	75	
CTGGGACCAAGGATAT (sugars k3 d10 k3, PS)	32	
TTATTATGTGATTGAG (sugars k3 d10 k3, PS)	23	
CCTGTGTAAATAAGTT (sugars k3 d10 k3, PS)	18	
GATTGAATTCACTATC (sugars k3 d10 k3, PS)	0	
TCACCTTTCATAATGT (sugars k3 d10 k3, PS)	63	
ATTTAGCATTGCCTGT (sugars k3 d10 k3, PS)	10	
GCTTTTGTCCACCTTT (sugars k3 d10 k3, PS)	68	target mRNA inhibition (0.02 µM): 28%; target mRNA inhibition (0.078 µM): 44%; target mRNA inhibition (0.313 µM): 61%; target mRNA inhibition (1.25 µM): 82%; target mRNA inhibition (5 µM): 97%
ATCAAGACATTCTAGC (sugars k3 d9 k3 e1, PS)	52	
TCTAGGATGATGTTCA (sugars k3 d10 k3, PS)	64	

Sequence	target mRNA inhibition (1 µM) [%]	also measured
GATAAAGCTGCCTGCT (sugars k3 d10 k3, PS)	42	
GTATUCCATCTATCAG (sugars k3 d1 m1 d8 k3, PS)	41	
ATGTAAAGTTTGTTAG (sugars k3 d10 k3, PS)	12	
TTCCATAAAGCTGGAT (sugars k3 d10 k3, PS)	5	
GAGTCGGTCACCTTTC (sugars k3 d9 k3 e1, PS)	74	target mRNA inhibition (0.02 µM): 0%; target mRNA inhibition (0.078 µM): 0%; target mRNA inhibition (0.313 µM): 0%; target mRNA inhibition (1.25 µM): 51%; target mRNA inhibition (5 µM): 76%
ATAACTACAAGAGGTT (sugars k3 d10 k3, PS)	64	
CTTAUTGGTAAGTATT (sugars k3 d1 m1 d8 k3, PS)	0	
ATCTTAAGAGAAGGTG (sugars k3 d10 k3, PS)	43	
TGCCTGCTGAAACTTG (sugars k3 d10 k3, PS)	31	
GGAGGTAGCTTTTGTC (sugars k3 d10 k3, PS)	43	
CTAAAATTGTCTAAAC (sugars k3 d9 k3 e1, PS)	7	
AGACUTTGAGACTCTT (sugars k3 d1 m1 d8 k3, PS)	48	
AACAGTCTTAAACCTT (sugars k3 d9 k3 e1, PS)	57	
TGTTGATATTCTGTGG (sugars k3 d1 m1 d8 k3, PS)	48	
ACAAAATCATGGTGTG (sugars k3 d10 k3, PS)	26	
CCAAATCAGGTAGTTT (sugars k3 d10 k3, PS)	13	
ACATTAGCAAGCTAAG (sugars kkdddddddddkekek, PS)	23	
GAAAAGATGTACACTG (sugars k3 d10 k3, PS)	56	
AGTGCATCTTAAGATA (sugars k3 d10 k3, PS)	57	
GCATATTCATTTGGCC (sugars k3 d10 k3, PS)	6	
GTCACCTTTCATAATG (sugars k3 d9 k3 e1, PS)	21	
TCTCTTGACAATGGTT (sugars k3 d10 k3, PS)	70	target mRNA inhibition (0.02 µM): 2%; target mRNA inhibition (0.078 µM): 14%; target mRNA inhibition (0.313 µM): 44%; target mRNA inhibition (1.25 µM): 86%; target mRNA inhibition (5 µM): 86%
AGACAGACTGTTGAGC (sugars k3 d10 k3, PS)	74	
CAGTTTTCCTCATGAT (sugars kkdddddddddkekek, PS)	59	

Sequence	target mRNA inhibition (1 µM) [%]	also measured
TAAAGCTGCCTGCTGA (sugars k3 d10 k3, PS)	44	
TTAGTTGGTAGCTTGC (sugars k3 d10 k3, PS)	72	
TTTAAGAGGCATGAAA (sugars k3 d10 k3, PS)	40	
TTCCGAAAAAAGTGGA (sugars k3 d10 k3, PS)	13	
GCAGAGACAGTAGATT (sugars k3 d10 k3, PS)	63	
TCCCACAAAACTAACC (sugars k3 d10 k3, PS)	24	
CGGTCACCTTTCATAA (sugars k3 d9 k3 e1, PS)	67	
TGTGTTCTTGTTGATA (sugars kkdddddddddkekek, PS)	64	
TCTATCAGACTTCTTA (sugars k3 d10 k3, PS)	49	
TTGGGACCAATATAAT (sugars k3 d10 k3, PS)	18	
AACAATATGGGATGAG (sugars k3 d10 k3, PS)	39	
CTAGTTTTCGGCACTC (sugars k3 d10 k3, PS)	33	
CATAAGGCCGATTCAT (sugars k3 d10 k3, PS)	32	
TAGGCAGTAAAGTGCT (sugars k3 d10 k3, PS)	48	
GCAAATACAGCAGTAC (sugars k3 d10 k3, PS)	56	
CCTTACCTTGTGCTTG (sugars k3 d10 k3, PS)	20	
TGGTGAACCCAGTATT (sugars k3 d10 k3, PS)	0	
GAATAGCCATGTAGCT (sugars k3 d10 k3, PS)	21	
TGGGACCAAGGATATA (sugars k3 d10 k3, PS)	20	
GTAGCTTTTGTCCACC (sugars k3 d9 k3 e1, PS)	67	
CTCAAAGCCTGTTGGA (sugars k3 d10 k3, PS)	10	
TACAGTAGGCAGTTTC (sugars k3 d10 k3, PS)	60	
TGAACCGTATTCCCAA (sugars k3 d10 k3, PS)	76	target mRNA inhibition (0.02 µM): 26%; target mRNA inhibition (0.078 µM): 8%; target mRNA inhibition (0.313 µM): 59%; target mRNA inhibition (1.25 µM): 81%; target mRNA inhibition (5 µM): 93%
